Assay results taken from patent US20190275097A1, “Lycopene from Momordica Cochinchinnensis Spreng., methods and formulations” (priority 2018, published 2019).

Columns and labels:
[1] = Gac pulp consumed alone, 30-day feeding trial; cited from earlier work
[2] = system: caco cell; experiment: Bioaccessibility studies using in-vitro digestion/caco cell techniques; type: in vitro ADME; details: carotenoids from Gac pulp
Description: The good absorption and transport of carotenoids after gac pulp consumption are probably due to its soft texture and to these high levels of fatty acids. […] This is in sharp contrast to other carotenoid rich fruits, which show a relatively low carotenoid bioavailability due to the lack of uptake enhancing lipids.

Compound | bioavailability: change in the human circulation after feeding trial [1] | bioavailability (bioaccessibility), in-vitro digestion/caco cell [2]
CC1=C(/C=C/C(C)=C/C=C/C(C)=C/C=C/C=C(C)/C=C/C=C(C)/C=C/C2=C(C)CCCC2(C)C)C(C)(C)CCC1 [beta-carotene] | significant increase | high bioavailability
CC(C)=CCC/C(C)=C/C=C/C(C)=C/C=C/C(C)=C/C=C/C=C(C)/C=C/C=C(C)/C=C/C=C(\C)CCC=C(C)C [lycopene] | significant increase | high bioavailability
